From ChEMBL document CHEMBL5724914, “Linking interpersonal differences in gut microbiota composition and drug biotransformation activity” (2024)

What was measured:
[1] = The drug is tested on Z-026 corresponding to metagenome with ENA study accession number: PRJEB37062 and ENA sample accession number: ERS12561825 for biotransformation under anaerobic condition. The drug concentrations were measured over 9 timepoints collected between 0 and 24 hours of incubation by liquid-chromatography-coupled mass spectrometry (LC–MS); settings: 2 µM
[2] = The drug is tested on Z-014 corresponding to rat gut metagenome with ENA study accession number: PRJEB37062 and ENA sample accession number: ERS12561814 for biotransformation under anaerobic condition. The drug concentrations were measured over 9 timepoints collected between 0 and 24 hours of incubation by liquid-chromatography-coupled mass spectrometry (LC–MS); settings: 2 µM
[3] = The drug is tested on Z-012 corresponding to metagenome with ENA study accession number: PRJEB37062 and ENA sample accession number: ERS12561812 for biotransformation under anaerobic condition. The drug concentrations were measured over 9 timepoints collected between 0 and 24 hours of incubation by liquid-chromatography-coupled mass spectrometry (LC–MS); settings: 2 µM
[4] = The drug is tested on Z-010 corresponding to metagenome with ENA study accession number: PRJEB37062 and ENA sample accession number: ERS12561810 for biotransformation under anaerobic condition. The drug concentrations were measured over 9 timepoints collected between 0 and 24 hours of incubation by liquid-chromatography-coupled mass spectrometry (LC–MS); settings: 2 µM
[5] = The drug is tested on Z-008 corresponding to metagenome with ENA study accession number: PRJEB37062 and ENA sample accession number: ERS12561808 for biotransformation under anaerobic condition. The drug concentrations were measured over 9 timepoints collected between 0 and 24 hours of incubation by liquid-chromatography-coupled mass spectrometry (LC–MS); settings: 2 µM
[6] = The drug is tested on Z-006 corresponding to mouse gut metagenome with ENA study accession number: PRJEB37062 and ENA sample accession number: ERS12561806 for biotransformation under anaerobic condition. The drug concentrations were measured over 9 timepoints collected between 0 and 24 hours of incubation by liquid-chromatography-coupled mass spectrometry (LC–MS); settings: 2 µM
[7] = The drug is tested on Z-003 corresponding to pig gut metagenome with ENA study accession number: PRJEB37062 and ENA sample accession number: ERS12561803 for biotransformation under anaerobic condition. The drug concentrations were measured over 9 timepoints collected between 0 and 24 hours of incubation by liquid-chromatography-coupled mass spectrometry (LC–MS); settings: 2 µM
[8] = The drug is tested on WLS-310 corresponding to human gut metagenome with ENA study accession number: PRJEB37062 and ENA sample accession number: ERS12561785 for biotransformation under anaerobic condition. The drug concentrations were measured over 9 timepoints collected between 0 and 24 hours of incubation by liquid-chromatography-coupled mass spectrometry (LC–MS); settings: 2 µM
[9] = The drug is tested on WLS-098 corresponding to human gut metagenome with ENA study accession number: PRJEB37062 and ENA sample accession number: ERS12561754 for biotransformation under anaerobic condition. The drug concentrations were measured over 9 timepoints collected between 0 and 24 hours of incubation by liquid-chromatography-coupled mass spectrometry (LC–MS); settings: 2 µM
[10] = The drug is tested on WLS-077 corresponding to human gut metagenome with ENA study accession number: PRJEB37062 and ENA sample accession number: ERS12561750 for biotransformation under anaerobic condition. The drug concentrations were measured over 9 timepoints collected between 0 and 24 hours of incubation by liquid-chromatography-coupled mass spectrometry (LC–MS); settings: 2 µM
[11] = The drug is tested on WLS-010 corresponding to human gut metagenome with ENA study accession number: PRJEB37062 and ENA sample accession number: ERS12561743 for biotransformation under anaerobic condition. The drug concentrations were measured over 9 timepoints collected between 0 and 24 hours of incubation by liquid-chromatography-coupled mass spectrometry (LC–MS); settings: 2 µM
[12] = human gut metagenome, 24 h, 2 µM
[13] = human gut metagenome, 24 h, 2 µM; remark: listed apart in the source
[14] = human gut metagenome, 24 h, 2 µM; remark: listed apart in the source
[15] = human gut metagenome, 24 h, 2 µM; remark: listed apart in the source
[16] = human gut metagenome, 24 h, 2 µM; remark: listed apart in the source
[17] = human gut metagenome, 24 h, 2 µM; remark: listed apart in the source
[18] = human gut metagenome, 24 h, 2 µM; remark: listed apart in the source
[19] = human gut metagenome, 24 h, 2 µM; remark: listed apart in the source
[20] = human gut metagenome, 24 h, 2 µM; remark: listed apart in the source
Further: call rule not given here.

Row | SMILES | Bacterial Biotransformation [1] | Bacterial Biotransformation [2] | Bacterial Biotransformation [3] | Bacterial Biotransformation [4] | Bacterial Biotransformation [5] | Bacterial Biotransformation [6] | Bacterial Biotransformation [7] | Bacterial Biotransformation [8] | Bacterial Biotransformation [9] | Bacterial Biotransformation [10] | Bacterial Biotransformation [11] | Bacterial Biotransformation [12] | Bacterial Biotransformation [13] | Bacterial Biotransformation [14] | Bacterial Biotransformation [15] | Bacterial Biotransformation [16] | Bacterial Biotransformation [17] | Bacterial Biotransformation [18] | Bacterial Biotransformation [19] | Bacterial Biotransformation [20]
1 | CCOC(=O)[C@H](CCc1ccccc1)N[C@@H](C)C(=O)N1[C@H](C(=O)O)C[C@@H]2CCC[C@@H]21 | Compound NOT metabolized | Compound NOT metabolized | Compound metabolized | Compound metabolized | Compound NOT metabolized | Compound NOT metabolized | Compound metabolized | Compound metabolized | Compound metabolized | Compound metabolized | Compound metabolized | Compound metabolized | Compound metabolized | Compound metabolized | Compound metabolized | Compound metabolized | Compound NOT metabolized | Compound metabolized | Compound metabolized | Compound metabolized
2 | CC[C@H](C)C(=O)O[C@H]1C[C@@H](C)C=C2C=C[C@H](C)[C@H](CC[C@@H]3C[C@@H](O)CC(=O)O3)[C@H]21 [LOVASTATIN] | Compound metabolized | Compound NOT metabolized | Compound NOT metabolized | Compound NOT metabolized | Compound NOT metabolized | Compound NOT metabolized | Compound NOT metabolized | Compound NOT metabolized | Compound NOT metabolized | Compound NOT metabolized | Compound NOT metabolized | Compound NOT metabolized | Compound NOT metabolized | Compound NOT metabolized | Compound NOT metabolized |  | Compound NOT metabolized | Compound NOT metabolized | Compound NOT metabolized | Compound NOT metabolized
3 | COc1c2occc2cc2ccc(=O)oc12 [METHOXSALEN] | Compound metabolized | Compound NOT metabolized | Compound metabolized | Compound metabolized | Compound metabolized | Compound metabolized | Compound metabolized | Compound metabolized | Compound metabolized | Compound metabolized | Compound metabolized |  | Compound metabolized |  | Compound metabolized | Compound metabolized | Compound metabolized |  | Compound metabolized | 
4 | COc1ccc2[nH]c([S+]([O-])Cc3ncc(C)c(OC)c3C)nc2c1 (configuration not stated) [OMEPRAZOLE] | Compound metabolized | Compound NOT metabolized | Compound NOT metabolized | Compound metabolized | Compound metabolized | Compound NOT metabolized | Compound NOT metabolized | Compound metabolized | Compound metabolized | Compound metabolized |  | Compound metabolized | Compound metabolized | Compound metabolized | Compound metabolized | Compound metabolized | Compound metabolized | Compound metabolized | Compound metabolized | Compound metabolized
5 | Cc1nc2n(c(=O)c1CCN1CCC(c3noc4cc(F)ccc34)CC1)CCCC2 [RISPERIDONE] | Compound NOT metabolized | Compound metabolized | Compound metabolized | Compound metabolized | Compound metabolized | Compound metabolized | Compound metabolized | Compound metabolized |  | Compound metabolized | Compound metabolized | Compound NOT metabolized | Compound metabolized | Compound metabolized | Compound metabolized | Compound metabolized | Compound metabolized | Compound metabolized | Compound metabolized | Compound metabolized
6 | Cc1cn([C@H]2C[C@H](N=[N+]=[N-])[C@@H](CO)O2)c(=O)[nH]c1=O [ZIDOVUDINE] | Compound metabolized | Compound NOT metabolized | Compound metabolized | Compound NOT metabolized | Compound NOT metabolized | Compound NOT metabolized | Compound NOT metabolized | Compound NOT metabolized | Compound NOT metabolized |  | Compound metabolized | Compound NOT metabolized | Compound NOT metabolized | Compound NOT metabolized | Compound NOT metabolized | Compound NOT metabolized | Compound metabolized | Compound NOT metabolized | Compound NOT metabolized | Compound metabolized
